What all share (assay): microbe, parasite or virus in culture
Holding throughout (assay type): cell-based

The test system of experiment [1] is Burkholderia pseudomallei. The settings on record: for MIC50 / MIC90 / MIC: Burkholderia pseudomallei; for MIC: read-out: MIC range.
The next experiment deals with Francisella tularensis. To be noted: for MIC: read-out: MIC range.
The next experiment concerns Bacillus anthracis. The settings on record: for MIC: read-out: MIC range.
The next experiment deals with Yersinia pestis. To be noted: for MIC: read-out: MIC range.
The test system of another experiment is Burkholderia mallei. To be noted: for MIC: read-out: MIC range.

Values after ≈ are worked out from the molar mass of the structure shown.

With `C[C@H](N)CCCc1cc(Cl)c(F)c(-c2cc3cn(-c4ccc([C@@H]5CCC[C@@H](CCSC(=N)N)N5)cc4)c(=O)nc3[nH]2)c1` [RX-D4], the MIC50 was found to be 1 µg/mL (≈ 1.64 µM) in experiment [1]; 0.03 µg/mL (≈ 0.0492 µM) with Francisella tularensis; 0.06 µg/mL (≈ 0.0983 µM) in the experiment on Bacillus anthracis; 0.12 µg/mL (≈ 0.197 µM) with Yersinia pestis; 0.12 µg/mL (≈ 0.197 µM) in the experiment on Burkholderia mallei. The MIC90 in experiment [1] came to 4 µg/mL (≈ 6.56 µM); against Francisella tularensis it was 0.06 µg/mL (≈ 0.0983 µM); against Bacillus anthracis, 0.12 µg/mL (≈ 0.197 µM); in the experiment on Yersinia pestis, 0.25 µg/mL (≈ 0.41 µM); with Burkholderia mallei it was 0.12 µg/mL (≈ 0.197 µM). Further, the MIC in experiment [1] was 0.25 to 8 µg/mL (≈ 0.41 to 13.1 µM); in the experiment on Francisella tularensis, 0.004 to 0.5 µg/mL (≈ 0.00656 to 0.819 µM); in the experiment on Bacillus anthracis, 0.015 to 0.12 µg/mL (≈ 0.0246 to 0.197 µM); in the experiment with Yersinia pestis it was 0.004 to 0.5 µg/mL (≈ 0.00656 to 0.819 µM); in the experiment on Burkholderia mallei, 0.03 to 0.12 µg/mL (≈ 0.0492 to 0.197 µM).
As to `CSc1cc(-n2cc3cc(-c4cc(CCC[C@@H](N)C5CC5)cc(Cl)c4F)[nH]c3nc2=O)ccc1[C@@H]1CCC[C@@H](CCNC(C)=N)N1` [RX-D1], the MIC50 was found to be 1 µg/mL (≈ 1.51 µM) in experiment [1]; 0.12 µg/mL (≈ 0.181 µM) against Francisella tularensis; 0.06 µg/mL (≈ 0.0903 µM) against Bacillus anthracis; 0.12 µg/mL (≈ 0.181 µM) with Yersinia pestis; 0.12 µg/mL (≈ 0.181 µM) in the experiment on Burkholderia mallei. Also, the MIC90 in experiment [1] is 4 µg/mL (≈ 6.02 µM); against Francisella tularensis it was 0.25 µg/mL (≈ 0.376 µM); against Bacillus anthracis, 0.06 µg/mL (≈ 0.0903 µM); against Yersinia pestis, 0.25 µg/mL (≈ 0.376 µM); in the experiment with Burkholderia mallei, 0.12 µg/mL (≈ 0.181 µM). Moreover, the MIC in experiment [1] fell in the range of 0.5 to 4 µg/mL (≈ 0.753 to 6.02 µM); with Francisella tularensis it was 0.06 to 0.5 µg/mL (≈ 0.0903 to 0.753 µM); with Bacillus anthracis, 0.008 to 0.12 µg/mL (≈ 0.012 to 0.181 µM); with Yersinia pestis, 0.008 to 0.25 µg/mL (≈ 0.012 to 0.376 µM); in the experiment with Burkholderia mallei, 0.06 to 0.25 µg/mL (≈ 0.0903 to 0.376 µM).
Take `CC(=N)NCC[C@@H]1CCC[C@@H](c2ccc(-n3cc4cc(-c5cc(CCC[C@H](C)N)cc(Cl)c5F)[nH]c4nc3=O)cc2C)N1` [RX-D8]: the MIC50 in experiment [1] was 8 µg/mL (≈ 13.2 µM); in the experiment with Francisella tularensis, 0.03 µg/mL (≈ 0.0495 µM); in the experiment on Bacillus anthracis it was at most 0.008 µg/mL; in the experiment with Yersinia pestis, 0.25 µg/mL (≈ 0.412 µM); in the experiment on Burkholderia mallei, 0.06 µg/mL (≈ 0.099 µM). For the same compound, the MIC90 was above 8 µg/mL in experiment [1]; 0.06 µg/mL (≈ 0.099 µM) against Francisella tularensis; at most 0.008 µg/mL in the experiment with Bacillus anthracis; 0.5 µg/mL (≈ 0.825 µM) with Yersinia pestis; 0.12 µg/mL (≈ 0.198 µM) with Burkholderia mallei. Also, the MIC in the experiment with Francisella tularensis was in the range of 0.004 to 0.12 µg/mL (≈ 0.0066 to 0.198 µM); in the experiment with Bacillus anthracis it was 0.008 to 0.015 µg/mL (≈ 0.0132 to 0.0247 µM); with Yersinia pestis, 0.06 to 0.5 µg/mL (≈ 0.099 to 0.825 µM); in the experiment with Burkholderia mallei, 0.03 to 0.25 µg/mL (≈ 0.0495 to 0.412 µM).
With `C=CCN1[C@H](CCNC(C)=N)CCC[C@H]1c1ccc(-n2cc3cc(-c4cc(CCC[C@H](C)N)cc(Cl)c4F)[nH]c3nc2=O)cc1` [RX-D10], the MIC50 was 2 µg/mL (≈ 3.16 µM) in experiment [1]; 0.12 µg/mL (≈ 0.19 µM) against Francisella tularensis; 0.12 µg/mL (≈ 0.19 µM) against Bacillus anthracis; 0.12 µg/mL (≈ 0.19 µM) in the experiment on Yersinia pestis; 0.12 µg/mL (≈ 0.19 µM) against Burkholderia mallei. Also, the MIC90 is 4 µg/mL (≈ 6.33 µM) in experiment [1]; 0.5 µg/mL (≈ 0.791 µM) in the experiment with Francisella tularensis; 0.25 µg/mL (≈ 0.395 µM) against Bacillus anthracis; 0.5 µg/mL (≈ 0.791 µM) in the experiment on Yersinia pestis; 0.25 µg/mL (≈ 0.395 µM) against Burkholderia mallei. Further, the MIC in experiment [1] is 0.25 to 8 µg/mL (≈ 0.395 to 12.7 µM); in the experiment on Francisella tularensis, 0.03 to 2 µg/mL (≈ 0.0475 to 3.16 µM); in the experiment on Bacillus anthracis it was 0.008 to 0.25 µg/mL (≈ 0.0127 to 0.395 µM); with Yersinia pestis, 0.03 to 0.5 µg/mL (≈ 0.0475 to 0.791 µM); in the experiment with Burkholderia mallei, 0.06 to 0.25 µg/mL (≈ 0.0949 to 0.395 µM).
In experiment [1], `CC(C)(O/N=C(\C(=O)N[C@@H]1C(=O)N2C(C(=O)[O-])=C(C[n+]3ccccc3)CS[C@H]12)c1csc(N)n1)C(=O)O` [Ceftazidime, ceftazidime, reference compound] showed an MIC range of at most 0.03 to 32 µg/mL, an MIC50 of 1 µg/mL (≈ 1.83 µM) and an MIC90 of 1 µg/mL (≈ 1.83 µM).
Consider `CC(=N)NCC[C@@H]1CCC[C@@H](c2ccc(-n3cc4cc(-c5cc(CCC[C@H](C)N)cc(Cl)c5F)[nH]c4nc3=O)cc2)N1CCCO` [RX-D2], for which the MIC50 is above 8 µg/mL in experiment [1]; 0.12 µg/mL (≈ 0.185 µM) in the experiment on Francisella tularensis; 0.06 µg/mL (≈ 0.0923 µM) in the experiment on Bacillus anthracis; 0.25 µg/mL (≈ 0.384 µM) with Yersinia pestis; 0.12 µg/mL (≈ 0.185 µM) against Burkholderia mallei. For the same compound, the MIC90 was above 8 µg/mL in experiment [1]; 0.25 µg/mL (≈ 0.384 µM) with Francisella tularensis; 0.12 µg/mL (≈ 0.185 µM) against Bacillus anthracis; 1 µg/mL (≈ 1.54 µM) in the experiment with Yersinia pestis; 0.25 µg/mL (≈ 0.384 µM) against Burkholderia mallei. The MIC in the experiment on Francisella tularensis lay in the range of 0.015 to 1 µg/mL (≈ 0.0231 to 1.54 µM); with Bacillus anthracis, 0.03 to 0.12 µg/mL (≈ 0.0461 to 0.185 µM); in the experiment with Yersinia pestis, 0.03 to 1 µg/mL (≈ 0.0461 to 1.54 µM); in the experiment on Burkholderia mallei it was 0.06 to 0.5 µg/mL (≈ 0.0923 to 0.769 µM).
For the compound `CC(=N)NCC[C@@H]1CCC[C@@H](c2ccc(-n3cc4cc(-c5cc(CCC[C@H](C)N)cc(Cl)c5F)[nH]c4nc3=O)cc2)N1CCCF` [RX-D3], the MIC50 in experiment [1] is 2 µg/mL (≈ 3.07 µM); in the experiment with Francisella tularensis, 0.12 µg/mL (≈ 0.184 µM); in the experiment on Bacillus anthracis it was 0.12 µg/mL (≈ 0.184 µM); with Yersinia pestis, 0.12 µg/mL (≈ 0.184 µM); in the experiment with Burkholderia mallei it was 0.12 µg/mL (≈ 0.184 µM). Also, the MIC90 in experiment [1] was 4 µg/mL (≈ 6.13 µM); against Francisella tularensis, 0.25 µg/mL (≈ 0.383 µM); in the experiment with Bacillus anthracis it was 0.12 µg/mL (≈ 0.184 µM); against Yersinia pestis, 0.25 µg/mL (≈ 0.383 µM); against Burkholderia mallei, 0.25 µg/mL (≈ 0.383 µM). In addition, the MIC in experiment [1] was in the range of 0.5 to 8 µg/mL (≈ 0.767 to 12.3 µM); with Francisella tularensis, 0.015 to 2 µg/mL (≈ 0.023 to 3.07 µM); in the experiment with Bacillus anthracis, 0.03 to 0.25 µg/mL (≈ 0.046 to 0.383 µM); in the experiment with Yersinia pestis, 0.06 to 0.5 µg/mL (≈ 0.092 to 0.767 µM); in the experiment with Burkholderia mallei, 0.03 to 0.25 µg/mL (≈ 0.046 to 0.383 µM).
